Data reported in PubChem BioAssay AID248 (DTP/NCI, 2004).
Several values for one entry are separate records, joined by “and”; a condition that tells them apart may be missing. Equal values may be shown once. Inconclusive results and toxic doses are left out.

System: L1210 leukemia ip in BDF1 mice, survival T/C
Assay: NCI In Vivo Anticancer Drug Screen. Data for tumor model L1210 Leukemia (intraperitoneal) in B6D2F1 (BDF1) mice
Details: higher = longer survival
Outline: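 Transplantable tumor model; survival measured in treated vs vehicle control mice. Value = treated/control.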

[1] = endpoint: mean survival time, dose: 25.0 mg/kg/injection, schedule: Q01DX001 (ip), vehicle: saline with Tween-80
[2] = endpoint: mean survival time, dose: 50.0 mg/kg/injection, schedule: Q01DX001 (ip), vehicle: saline with Tween-80

CCCCCCCCCCCCCCCC(=O)OCC1OC(n2ccc(N)nc2=O)C(O)C1O (stereo not drawn)
T/C (endpoint: mean survival time, dose: 5.0 mg/kg/injection, schedule: Q01DX005 (ip), vehicle: other): 150 % of control
T/C (endpoint: mean survival time, dose: 6.0 mg/kg/injection, schedule: Q01DX009 (ip), vehicle: saline with Tween-80): 200 % of control
T/C (endpoint: mean survival time, dose: 8.8 mg/kg/injection, schedule: Q01DX009 (ip), vehicle: saline with Tween-80): 210 % of control
T/C (endpoint: mean survival time, dose: 10.0 mg/kg/injection, schedule: Q01DX005 (ip), vehicle: other): 182 % of control and 183 % of control and 198 % of control
T/C (endpoint: mean survival time, dose: 10.0 mg/kg/injection, schedule: Q06HX008 (ip), vehicle: other): 236 % of control
T/C (endpoint: mean survival time, dose: 12.0 mg/kg/injection, schedule: Q01DX009 (ip), vehicle: saline with Tween-80): 242 % of control
T/C (endpoint: mean survival time, dose: 12.5 mg/kg/injection, schedule: Q01DX001 (ip), vehicle: saline): 153 % of control
T/C (endpoint: mean survival time, dose: 13.0 mg/kg/injection, schedule: Q01DX009 (ip), vehicle: saline with Tween-80): 244 % of control (2×) and 260 % of control
T/C (endpoint: mean survival time, dose: 15.0 mg/kg/injection, schedule: Q01DX005 (ip), vehicle: other): 210 % of control and 231 % of control and 237 % of control
T/C (endpoint: mean survival time, dose: 15.0 mg/kg/injection, schedule: Q01DX008 (ip), vehicle: other): 226 % of control
T/C (endpoint: mean survival time, dose: 15.0 mg/kg/injection, schedule: Q12HX008 (ip), vehicle: other): 292 % of control
T/C (endpoint: mean survival time, dose: 16.0 mg/kg/injection, schedule: Q06HX008 (ip), vehicle: other): 267 % of control
T/C (endpoint: mean survival time, dose: 20.0 mg/kg/injection, schedule: Q01DX005 (ip), vehicle: other): 220 % of control and 224 % of control and 245 % of control
T/C (endpoint: mean survival time, dose: 20.0 mg/kg/injection, schedule: Q01DX008 (ip), vehicle: other): 264 % of control
T/C (endpoint: mean survival time, dose: 24.0 mg/kg/injection, schedule: Q01DX009 (oral), vehicle: saline with Tween-80): 119 % of control
T/C (endpoint: mean survival time, dose: 25.0 mg/kg/injection, schedule: Q01DX001 (ip), vehicle: other): 153 % of control and 154 % of control and 174 % of control
T/C [1]: 196 % of control
T/C (endpoint: mean survival time, dose: 25.0 mg/kg/injection, schedule: Q01DX001 (ip), vehicle: saline): 165 % of control
T/C (endpoint: mean survival time, dose: 25.0 mg/kg/injection, schedule: Q01DX005 (ip), vehicle: other): 243 % of control and 258 % of control and 273 % of control
T/C (endpoint: mean survival time, dose: 25.0 mg/kg/injection, schedule: Q01DX008 (ip), vehicle: other): 267 % of control
T/C (endpoint: mean survival time, dose: 25.0 mg/kg/injection, schedule: Q02DX008 (ip), vehicle: other): 270 % of control
T/C (endpoint: mean survival time, dose: 25.0 mg/kg/injection, schedule: Q04DX008 (ip), vehicle: other): 245 % of control and 252 % of control
T/C (endpoint: mean survival time, dose: 25.0 mg/kg/injection, schedule: Q06DX008 (ip), vehicle: other): 165 % of control and 187 % of control
T/C (endpoint: mean survival time, dose: 25.0 mg/kg/injection, schedule: Q08DX008 (ip), vehicle: other): 178 % of control
T/C (endpoint: mean survival time, dose: 27.0 mg/kg/injection, schedule: Q02DX005 (ip), vehicle: saline with Tween-80): 255 % of control
T/C (endpoint: mean survival time, dose: 30.0 mg/kg/injection, schedule: Q01DX009 (ip), vehicle: saline with Tween-80): 270 % of control
T/C (endpoint: mean survival time, dose: 30.0 mg/kg/injection, schedule: Q03HX008 (ip), vehicle: other): 192 % of control
T/C (endpoint: mean survival time, dose: 32.0 mg/kg/injection, schedule: Q04DX003 (ip), vehicle: saline with Tween-80): 198 % of control
T/C (endpoint: mean survival time, dose: 35.0 mg/kg/injection, schedule: Q01DX005 (ip), vehicle: other): 254 % of control and 255 % of control
T/C (endpoint: mean survival time, dose: 36.0 mg/kg/injection, schedule: Q01DX009 (oral), vehicle: saline with Tween-80): 113 % of control
T/C (endpoint: mean survival time, dose: 40.0 mg/kg/injection, schedule: Q03HX008 (ip), vehicle: other): 151 % of control and 167 % of control
T/C (endpoint: mean survival time, dose: 49.0 mg/kg/injection, schedule: Q04DX003 (ip), vehicle: saline with Tween-80): 271 % of control
T/C (endpoint: mean survival time, dose: 50.0 mg/kg/injection, schedule: Q01DX001 (ip), vehicle: other): 173 % of control and 187 % of control and 211 % of control
T/C [2]: 165 % of control
T/C (endpoint: mean survival time, dose: 50.0 mg/kg/injection, schedule: Q01DX001 (ip), vehicle: saline): 186 % of control and 207 % of control
T/C (endpoint: mean survival time, dose: 50.0 mg/kg/injection, schedule: Q01DX009 (ip), vehicle: saline): 115 % of control
T/C (endpoint: mean survival time, dose: 50.0 mg/kg/injection, schedule: Q04DX008 (ip), vehicle: other): 216 % of control
T/C (endpoint: mean survival time, dose: 50.0 mg/kg/injection, schedule: Q06DX008 (ip), vehicle: other): 245 % of control and 283 % of control
T/C (endpoint: mean survival time, dose: 50.0 mg/kg/injection, schedule: Q08DX008 (ip), vehicle: other): 283 % of control and 293 % of control
T/C (endpoint: mean survival time, dose: 60.0 mg/kg/injection, schedule: Q02DX005 (ip), vehicle: saline with Tween-80): 182 % of control
T/C (endpoint: mean survival time, dose: 64.0 mg/kg/injection, schedule: Q04DX003 (oral), vehicle: saline with Tween-80): 101 % of control
T/C (endpoint: mean survival time, dose: 67.0 mg/kg/injection, schedule: Q01DX001 (ip), vehicle: saline with Tween-80): 162 % of control and 220 % of control
T/C (endpoint: mean survival time, dose: 70.0 mg/kg/injection, schedule: Q01DX001 (ip), vehicle: saline with Tween-80): 239 % of control
T/C (endpoint: mean survival time, dose: 75.0 mg/kg/injection, schedule: Q02DX004 (ip), vehicle: other): 244 % of control
T/C (endpoint: mean survival time, dose: 90.0 mg/kg/injection, schedule: Q02DX004 (ip), vehicle: other): 283 % of control
T/C (endpoint: mean survival time, dose: 98.0 mg/kg/injection, schedule: Q04DX003 (oral), vehicle: saline with Tween-80): 106 % of control
T/C (endpoint: mean survival time, dose: 100.0 mg/kg/injection, schedule: Q01DX001 (ip), vehicle: other): 220 % of control and 253 % of control and 281 % of control
T/C (endpoint: mean survival time, dose: 100.0 mg/kg/injection, schedule: Q01DX001 (ip), vehicle: saline): 276 % of control and 293 % of control
T/C (endpoint: mean survival time, dose: 100.0 mg/kg/injection, schedule: Q01DX009 (ip), vehicle: saline): 96 % of control
T/C (endpoint: mean survival time, dose: 100.0 mg/kg/injection, schedule: Q02DX008 (ip), vehicle: other): 194 % of control
T/C (endpoint: mean survival time, dose: 100.0 mg/kg/injection, schedule: Q04DX008 (ip), vehicle: other): 286 % of control
T/C (endpoint: mean survival time, dose: 120.0 mg/kg/injection, schedule: Q03DX004 (ip), vehicle: other): 235 % of control
T/C (endpoint: mean survival time, dose: 140.0 mg/kg/injection, schedule: Q01DX001 (oral), vehicle: saline with Tween-80): 98 % of control
T/C (endpoint: mean survival time, dose: 146.0 mg/kg/injection, schedule: Q04DX003 (oral), vehicle: saline with Tween-80): 106 % of control
T/C (endpoint: mean survival time, dose: 150.0 mg/kg/injection, schedule: Q04DX008 (ip), vehicle: other): 233 % of control and 235 % of control
T/C (endpoint: mean survival time, dose: 150.0 mg/kg/injection, schedule: Q08DX008 (ip), vehicle: other): 291 % of control
T/C (endpoint: mean survival time, dose: 200.0 mg/kg/injection, schedule: Q01DX001 (ip), vehicle: saline): 283 % of control
T/C (endpoint: mean survival time, dose: 214.0 mg/kg/injection, schedule: Q01DX001 (oral), vehicle: saline with Tween-80): 97 % of control
T/C (endpoint: mean survival time, dose: 220.0 mg/kg/injection, schedule: Q04DX003 (oral), vehicle: saline with Tween-80): 104 % of control
T/C (endpoint: mean survival time, dose: 225.0 mg/kg/injection, schedule: Q01DX001 (ip), vehicle: saline with Tween-80): 249 % of control
T/C (endpoint: mean survival time, dose: 250.0 mg/kg/injection, schedule: Q01DX001 (ip), vehicle: other): 175 % of control and 210 % of control and 234 % of control
T/C (endpoint: mean survival time, dose: 320.0 mg/kg/injection, schedule: Q01DX001 (oral), vehicle: saline with Tween-80): 108 % of control
T/C (endpoint: mean survival time, dose: 337.0 mg/kg/injection, schedule: Q01DX001 (ip), vehicle: saline with Tween-80): 172 % of control
T/C (endpoint: mean survival time, dose: 400.0 mg/kg/injection, schedule: Q01DX001 (ip), vehicle: saline): 156 % of control
T/C (endpoint: mean survival time, dose: 480.0 mg/kg/injection, schedule: Q01DX001 (oral), vehicle: saline with Tween-80): 101 % of control
T/C (endpoint: median survival time, dose: 75.0 mg/kg/injection, schedule: Q01DX001 (ip), vehicle: saline): 288 % of control
T/C (endpoint: median survival time, dose: 150.0 mg/kg/injection, schedule: Q01DX001 (ip), vehicle: saline): 288 % of control
T/C (endpoint: median survival time, dose: 300.0 mg/kg/injection, schedule: Q01DX001 (ip), vehicle: none): 98 % of control
T/C (endpoint: median survival time, dose: 300.0 mg/kg/injection, schedule: Q01DX001 (ip), vehicle: saline): 94 % of control

Fc1ccc([P+]2(c3ccc(F)cc3)C=C(c3ccccc3)[P+](c3ccc(F)cc3)(c3ccc(F)cc3)C=C2c2ccccc2)cc1
T/C (endpoint: mean survival time, dose: 12.5 mg/kg/injection, schedule: Q01DX001 (ip), vehicle: saline with Tween-80): 100 % of control
T/C [1]: 98 % of control
T/C [2]: 100 % of control

Clc1c(Cl)c(CBr)c(Cl)c(CBr)c1Cl
T/C (endpoint: mean survival time, dose: 50.0 mg/kg/injection, schedule: Q01DX009 (ip), vehicle: Klucel (hydroxypropylcellulose) (HPC)): 104 % of control
T/C (endpoint: mean survival time, dose: 100.0 mg/kg/injection, schedule: Q04DX003 (ip), vehicle: Klucel (hydroxypropylcellulose) (HPC)): 103 % of control
T/C (endpoint: mean survival time, dose: 200.0 mg/kg/injection, schedule: Q04DX003 (ip), vehicle: Klucel (hydroxypropylcellulose) (HPC)): 109 % of control

CC(=O)Nc1c(C)cc(C)c(F)c1Br
T/C (endpoint: mean survival time, dose: 37.5 mg/kg/injection, schedule: Q01DX001 (ip), vehicle: Klucel (hydroxypropylcellulose) (HPC)): 97 % of control
T/C (endpoint: mean survival time, dose: 75.0 mg/kg/injection, schedule: Q01DX001 (ip), vehicle: Klucel (hydroxypropylcellulose) (HPC)): 95 % of control
T/C (endpoint: mean survival time, dose: 150.0 mg/kg/injection, schedule: Q01DX001 (ip), vehicle: Klucel (hydroxypropylcellulose) (HPC)): 95 % of control
